Data on one compound can be found in patent publication US8901314B2, “Substituted pyrazoles as N-type calcium channel blockers” (Janssen Pharmaceutica NV, priority 2012, dated 2014).

For orientation: IC50 means the point on the concentration scale where inhibition reaches its midpoint.

Assay [1] relates to Cav2.2 (N-type calcium channel; α1B, α2δ and β3 subunits stably expressed in HEK293 cells). Description: Automated electrophysiology assay (QPatch-HT patch clamp). In kind it is cell-based. As to conditions: 0.1 μM. In short, it runs like this:
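Whole-cell automated patch clamp of HEK293 cells stably expressing α1B, α2δ-1 and β3, with 10 mM Ba²⁺/TEA external solution and CsCl internal solution. From −80 mV, trains of 15 pulses to +20 mV at 5 Hz every 30 s. Pulse 1 and pulse 15 currents normalized to the no-compound control period, with CdCl2 used to zero the current.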
(The patch-clamp technique gives a direct electrical read-out from membranes.)

In assay [2] the target is α1B (Cav2.2), β3 and α2δ subunits of the N-type calcium channel (stable HEK cell line) (Rattus norvegicus, UniProt Q02294). In words: Calcium-dye indicator assay (FDSS, KCl depolarization). To be noted: calcium mobilization response to 50 mM KCl; six-point concentration-response. Format: cell-based. The procedure, abridged:
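HEK cells stably co-expressing α1B, β3 and α2δ subunits, loaded with calcium dye, exposed to compound for 5 min before 50 mM KCl depolarization, 3 min further read on FDSS. Maximal fluorescence normalized to KCl maximum and buffer minimum; IC50 by sigmoidal nonlinear regression.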
(In general: A change in cytosolic calcium serves as a functional read-out for many receptors and channels.)

As to `COc1ccccc1-n1nc(C2CC(C)(C)OC2(C)C)cc1-c1ccc(Cl)cc1` (stereo not drawn) [Compound 98, 5-(4-Chlorophenyl)-1-(2-methoxyphenyl)-3-(2,2,5,5-tetramethyltetrahydrofuran-3-yl)-1H-pyrazole], in assay [1] (high frequency stimulation (15th pulse of 5 Hz train)), the “QPatch % Inhibition, High Freq” value worked out at 61%. The “QPatch % Inhibition, Low Freq” value in assay [1] (low frequency stimulation (1st pulse of train)) is 44.5%. The IC50 in assay [2] worked out at 5.1 nM.
